According to patent publication US20230109839A1, “THERAPEUTIC AGENT FOR TAUOPATHIES” (SUMITOMO PHARMA CO., LTD., priority 2020, published 2023):

Target: T1, human Nav1.1 (Homo sapiens, UniProt P35498)
T1 construct: host or cells: HEK293
Experiment: Amplification of Nav1.1-derived voltage-gated sodium current (Nav1.1 current), automated patch clamp (Test 1)
Format: cell-based
Conditions: Concentration for evaluation 1 μM; HEK293 cell line stably expressing human Nav1.1
Procedure, shortened: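 HEK293 cells stably expressing human Nav1.1, restricted to cells with >500 pA current, were recorded by automated voltage-clamp patch clamp with a ramp voltage stimulus. Compounds were applied in HEPES-buffered extracellular solution with 1% DMSO. Amplification (%) = 100×(peak or AUC after/before compound)−100.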

Row | Structure (SMILES) | Nav1.1 current amplification rate (%)
1 | Cc1nccn1-c1ccc(NC(=O)Cn2nc(C3=CCC(C)CC3)ccc2=O)cc1 (stereo not shown) [Example 361] | 101
2 | CC1CC=C(c2ccc(=O)n(CC(=O)Nc3ccnc(C#N)c3)n2)CC1 (stereo not shown) [Example 362] | 133
3 | CC1CC=C(c2ccc(=O)n(CC(=O)Nc3cccc(-n4ccnc4)c3)n2)CC1 (stereo not shown) [Example 363] | 174
4 | CC1CC=C(c2ccc(=O)n(CC(=O)Nc3ccc(-n4ccnc4)nc3)n2)CC1 (stereo not shown) [Example 377] | 134
5 | CC1CC=C(c2ccc(=O)n(CC(=O)Nc3ccnc(N4CCOCC4)c3F)n2)CC1 (stereo not shown) [Example 383] | 84
6 | CC1(C)CC=C(c2ccc(=O)n(CC(=O)N3CCc4c(N5CCOCC5)cccc43)n2)CC1 [Example 432] | 280

Second part, the compound after the results:

Row | Nav1.1 current amplification rate (%) | Structure (SMILES)
7 | 38 | CC1CC=C(c2ccc(=O)n(CC(=O)Nc3cncc(C4=CCN(C)C4)c3)n2)CC1 (stereo not shown) [Example 367]
8 | 37 | CC1CC=C(c2ccc(=O)n(CC(=O)Nc3cncc(-c4cnn(C)c4)c3)n2)CC1 (stereo not shown) [Example 378]
9 | 82 | Cc1ncc(-c2cncc(NC(=O)Cn3nc(C4=CCC(C)CC4)ccc3=O)c2)o1 (stereo not shown) [Example 380]
10 | 153 | CC1CC=C(c2ccc(=O)n(CC(=O)Nc3cncc(C4=CCOC4)c3)n2)CC1 (stereo not shown) [Example 381]
11 | 13 | CC1CC=C(c2ccc(=O)n(CC(=O)Nc3cncc(C4=COCCC4)c3)n2)CC1 (stereo not shown) [Example 382]
12 | 15 | CC1CC=C(c2ccc(=O)n(CC(=O)N3CCCN(c4cccnc4)CC3)n2)CC1 (stereo not shown) [Example 384]
13 | 19 | CC1CC=C(c2ccc(=O)n(CC(=O)N3CC=C(c4ccncc4)C3)n2)CC1 (stereo not shown) [Example 387]
14 | 66 | CC1CC=C(c2ccc(=O)n(CC(=O)N3CC=C(c4ccncc4)CC3)n2)CC1 (stereo not shown) [Example 419]

Same assay, conditions: Concentration for evaluation 3 μM; HEK293 cell line stably expressing human Nav1.1

Row | Structure (SMILES) | Nav1.1 current amplification rate (%)
15 | CC1(C)CC=C(c2ccc(=O)n(CC(=O)N3CCc4c(C5CN(C(=O)CO)C5)cccc43)n2)CC1 [Example 437] | 582
16 | CC1(C)CC=C(c2ccc(=O)n(CC(=O)N3CCc4c(C5CN(C6COC6)C5)cccc43)n2)CC1 [Example 438] | 404

Continued, values first:

Row | Nav1.1 current amplification rate (%) | Structure (SMILES)
17 | 268 | CC1CC=C(c2ccc(=O)n(CC(=O)N3CCN(c4cncc(OC(F)F)c4)CC3)n2)CC1 (stereo not shown) [Example 405]
18 | 113 | COc1ccc(N2CCN(C(=O)Cn3nc(C4=CCC(C)CC4)ccc3=O)CC2)cn1 (stereo not shown) [Example 407]
19 | 244 | COc1ncc(N2CCN(C(=O)Cn3nc(C4=CCC(C)CC4)ccc3=O)CC2)cc1F (stereo not shown) [Example 409]
20 | 27 | COc1cc(N2CCN(C(=O)Cn3nc(C4=CCC(C)CC4)ccc3=O)CC2)ccc1F (stereo not shown) [Example 413]
21 | 105 | COc1cnc(C)c(N2CCN(C(=O)Cn3nc(C4=CCC(C)CC4)ccc3=O)CC2)c1 (stereo not shown) [Example 418]

Same assay, conditions: Concentration for evaluation 10 μM; HEK293 cell line stably expressing human Nav1.1

Row | Structure (SMILES) | Nav1.1 current amplification rate (%)
22 | CC1CC=C(c2ccc(=O)n(CC(=O)NC3CCN(c4ccccc4)CC3)n2)CC1 (stereo not shown) [Example 368] | 18
23 | CC1CC=C(c2ccc(=O)n(CC(=O)Nc3ccnc(CO)c3)n2)CC1 (stereo not shown) [Example 370] | 35
24 | CC1CC=C(c2ccc(=O)n(CC(=O)NC3CN(c4ccccc4)C3)n2)CC1 (stereo not shown) [Example 372] | 52
25 | CC1CC=C(c2ccc(=O)n(CC(=O)Nc3ccnc(CN4CCOCC4)c3)n2)CC1 (stereo not shown) [Example 373] | 35
26 | CC1CC=C(c2ccc(=O)n(CC(=O)Nc3ccc(-c4cnn(C)c4)nc3)n2)CC1 (stereo not shown) [Example 375] | 173
27 | CC1CC=C(c2ccc(=O)n(CC(=O)Nc3ccc(CO)nc3)n2)CC1 (stereo not shown) [Example 376] | 44
28 | CC1CC=C(c2ccc(=O)n(CC(=O)Nc3ccnc(-c4cnn(C)c4)c3)n2)CC1 (stereo not shown) [Example 379] | 147
29 | CC1CC=C(c2ccc(=O)n(CC(=O)N3CCC(Oc4ccccc4)CC3)n2)CC1 (stereo not shown) [Example 390] | 50
30 | CC1(C)CC=C(c2ccc(=O)n(CC(=O)Nc3ccn4ccnc4c3)n2)CC1 [Example 425] | 283
31 | CC1(C)CC=C(c2ccc(=O)n(CC(=O)Nc3ccc4c(c3)OCC4)n2)CC1 [Example 426] | 244
32 | CC1(C)CC=C(c2ccc(=O)n(CC(=O)Nc3ccn4nccc4c3)n2)CC1 [Example 427] | 172
33 | COc1ccc2c(c1)CCN2C(=O)Cn1nc(C2=CCC(C)(C)CC2)ccc1=O [Example 430] | 28
34 | COc1cccc2c1CCN2C(=O)Cn1nc(C2=CCC(C)(C)CC2)ccc1=O [Example 431] | 11
35 | CN1CCN(c2cccc3c2CCN3C(=O)Cn2nc(C3=CCC(C)(C)CC3)ccc2=O)CC1 [Example 433] | 192
36 | COC1CN(c2cccc3c2CCN3C(=O)Cn2nc(C3=CCC(C)(C)CC3)ccc2=O)C1 [Example 434] | 232
37 | COCOc1cccc2c1CCN2C(=O)Cn1nc(C2=CCC(C)(C)CC2)ccc1=O [Example 435] | 262
38 | CC1(C)CC=C(c2ccc(=O)n(CC(=O)N3CCc4c(OC5COC5)cccc43)n2)CC1 [Example 436] | 226
39 | CC1(C)CC=C(c2ccc(=O)n(CC(=O)N3CCN(c4ccccn4)CC3)n2)CC1 [Example 439] | 87
40 | CC1(C)CC=C(c2ccc(=O)n(CC(=O)N3CCN(c4cccnc4)CC3)n2)CC1 [Example 440] | 196

The remaining lines, values ahead:

Row | Nav1.1 current amplification rate (%) | Structure (SMILES)
41 | 18 | CC1CC=C(c2ccc(=O)n(CC(=O)Nc3ccc(C4=CCN(C)C4)nc3)n2)CC1 (stereo not shown) [Example 374]
42 | 37 | CC1CC=C(c2ccc(=O)n(CC(=O)N3CC=C(c4ccccc4)C3)n2)CC1 (stereo not shown) [Example 388]
43 | 53 | CC1CC=C(c2ccc(=O)n(CC(=O)N3CCC(Cc4ccccc4)C3)n2)CC1 (stereo not shown) [Example 389]
44 | 53 | CC1CC=C(c2ccc(=O)n(CC(=O)N3CCN(Cc4ccncc4)CC3)n2)CC1 (stereo not shown) [Example 392]
45 | 19 | CC1CC=C(c2ccc(=O)n(CC(=O)N3CCN(Cc4cccnc4)CC3)n2)CC1 (stereo not shown) [Example 393]
46 | 98 | CC1CC=C(c2ccc(=O)n(CC(=O)N3CCN(c4ccccn4)CC3)n2)CC1 (stereo not shown) [Example 394]
47 | 343 | CC1CC=C(c2ccc(=O)n(CC(=O)N3CCN(c4cccnc4)CC3)n2)CC1 (stereo not shown) [Example 395]
48 | 136 | Cc1ccc(N2CCN(C(=O)Cn3nc(C4=CCC(C)CC4)ccc3=O)CC2)cn1 (stereo not shown) [Example 396]
49 | 273 | CC1CC=C(c2ccc(=O)n(CC(=O)N3CC=C(c4cncc(F)c4)CC3)n2)CC1 (stereo not shown) [Example 397]
50 | 175 | CC1CC=C(c2ccc(=O)n(CC(=O)N3CC=C(c4cncnc4)CC3)n2)CC1 (stereo not shown) [Example 398]
51 | 102 | COc1cnc(C2=CCN(C(=O)Cn3nc(C4=CCC(C)CC4)ccc3=O)CC2)cn1 (stereo not shown) [Example 399]
52 | 238 | COc1ncc(C2=CCN(C(=O)Cn3nc(C4=CCC(C)CC4)ccc3=O)CC2)cn1 (stereo not shown) [Example 400]
53 | 286 | CC1CC=C(c2ccc(=O)n(CC(=O)N3CCN(c4cncc(C(F)(F)F)c4)CC3)n2)CC1 (stereo not shown) [Example 401]
54 | 323 | CC1CC=C(c2ccc(=O)n(CC(=O)N3CC=C(c4cccnc4)CC3)n2)CC1 (stereo not shown) [Example 402]
55 | 270 | COc1cncc(C2=CCN(C(=O)Cn3nc(C4=CCC(C)CC4)ccc3=O)CC2)c1 (stereo not shown) [Example 403]
56 | 42 | CC1CC=C(c2ccc(=O)n(CC(=O)N3CC=C(c4nccc5occc45)CC3)n2)CC1 (stereo not shown) [Example 404]
57 | 40 | CC1CC=C(c2ccc(=O)n(CC(=O)N3CCN(c4nccs4)CC3)n2)CC1 (stereo not shown) [Example 414]
58 | 93 | CC1CC=C(c2ccc(=O)n(CC(=O)N3CCN(c4cnn(C)c4)CC3)n2)CC1 (stereo not shown) [Example 415]
59 | 383 | CC1CC=C(c2ccc(=O)n(CC(=O)N3C[C@@H](C)N(c4cccnc4)[C@@H](C)C3)n2)CC1 (stereo partly shown) [Example 416]
60 | 39 | CC1CC=C(c2ccc(=O)n(CC(=O)N3CC=C(c4ccccn4)CC3)n2)CC1 (stereo not shown) [Example 420]

Same assay, conditions: Concentration for evaluation 50 μM; HEK293 cell line stably expressing human Nav1.1

Row | Structure (SMILES) | Nav1.1 current amplification rate (%)
61 | CC1CC=C(c2ccc(=O)n(CC(=O)Nc3cncc(CN(C)C)c3)n2)CC1 (stereo not shown) [Example 365] | 32
62 | COC1CN(Cc2cncc(NC(=O)Cn3nc(C4=CCC(C)CC4)ccc3=O)c2)C1 (stereo not shown) [Example 366] | 37
63 | CC1CC=C(c2ccc(=O)n(CC(=O)NC3CCN(c4ccccc4)C3)n2)CC1 (stereo not shown) [Example 369] | 10
64 | Cc1nc(N2CCN(C(=O)Cn3nc(C4=CCC(C)CC4)ccc3=O)CC2)no1 (stereo not shown) [Example 406] | 68
65 | CC1CC=C(c2ccc(=O)n(CC(=O)N3CCN(C4CCCOC4)CC3)n2)CC1 (stereo not shown) [Example 408] | 80
66 | CC1CC=C(c2ccc(=O)n(CC(=O)N3CCN(C4CCOCC4)CC3)n2)CC1 (stereo not shown) [Example 411] | 18

Results, then the compound that gave them:

Row | Nav1.1 current amplification rate (%) | Structure (SMILES)
67 | 64 | CC1CC=C(c2ccc(=O)n(CC(=O)Nc3ccnc(C4=CCN(C)C4)c3)n2)CC1 (stereo not shown) [Example 371]
68 | 42 | CC1CC=C(c2ccc(=O)n(CC(=O)N3CC=C(c4ccccn4)C3)n2)CC1 (stereo not shown) [Example 385]
69 | 126 | CC1CC=C(c2ccc(=O)n(CC(=O)N3CC=C(c4cccnc4)C3)n2)CC1 (stereo not shown) [Example 386]
70 | 36 | CC1CC=C(c2ccc(=O)n(CC(=O)N3CCN(c4ccn(C)n4)CC3)n2)CC1 (stereo not shown) [Example 412]
